Measurements taken from article PMC7084598, “Design, Synthesis, and Biological Evaluation of Two Series of Novel A-Ring Fused Steroidal Pyrazines as Potential Anticancer Agents” (International Journal of Molecular Sciences, 2020).

Assays:
DU-145 = tested on: DU-145; design: method as in PMID 14695204, PMID 26042639; conditions: cited from earlier work
NCI-H460 = tested on: NCI-H460; design: method as in PMID 14695204, PMID 26042639; conditions: cited from earlier work
MCF-7 = tested on: MCF-7; design: method as in PMID 14695204, PMID 26042639; conditions: cited from earlier work
[1] = tested on: PC-3 (prostate carcinoma); experiment: CCK-8 antiproliferative assay, PC-3; type: cell-based, human; conditions: for inhibition at 20 µM: 48 h, CCK8, mean of three independent experiments, NA = no activity, read-out: Inhibitory Ratio (Mean% ± SD%) PC-3
Protocol: (§1) All the thirty-six target derivatives (5a–5f, 10a–10o, and 12a–12o) were screened for antiproliferative activities against three human cancer cell lines (MCF-7, PC-3, and HepG2) and cytotoxicity on a normal human cell (THLE-2) at the concentration of 20 μM by using the CCK8 assay.
(§2) Thirty-six novel steroidal A-ring fused pyrazine hybrids were evaluated by Cell Counting Kit-8 (CCK-8) assays, to evaluate their in vitro antiproliferative activities on three human cancer cell lines and one normal cell line: MCF-7 (breast carcinoma), PC-3 (prostate carcinoma), HepG2 (liver hepatocellular carcinoma), and THLE-2 ([…]), with 5-fluorouracil as the positive control.
(§3) Cells (3 × 10^3 cells per well) seeded into 96-well plates (Costar, Shanghai, China) were incubated with Ham’s F-12K containing various concentrations of steroidal pyrazines (5a–5f, 10a–10o, and 12a–12o) for 48 h at 37 °C and 5% COThen, 10 μL of CCK-8 reagent (Beyotime, Shanghai, China) dissolved in PBS (Phosphate buffered saline) was added per well, and continuously incubated at 37 °C for 1 h. Finally, the absorbance of samples taken from each well was measured on a microplate reader at 450 nm. The antiproliferative activities were expressed as inhibitory activity and IC50 values calculated using GraphPad Software 5.0 (GraphPad Software, San Diego, CA, USA), which were the mean values of three independent tests and are shown in Table 1 and Table 2, respectively. The formula used for cell inhibitory rates was (1 - sample absorption/vehicle absorption) × 100%.

MCF-7 (breast carcinoma) = experiment: CCK-8 antiproliferative assay, MCF-7; type: cell-based; conditions: Homo sapiens, MCF7, 48 h, CCK8, mean of three independent experiments, NA = no activity, read-out: Inhibitory Ratio (Mean% ± SD%) MCF-7
Protocol: as §1, §2, §3

[2] = tested on: HepG2 (liver hepatocellular carcinoma); experiment: CCK-8 antiproliferative assay, HepG2; type: cell-based; conditions: Homo sapiens, 48 h, CCK8, mean of three independent experiments, NA = no activity, read-out: Inhibitory Ratio (Mean% ± SD%) HepG2
Protocol: as §1, §2, §3

PC-3 cells [3] = experiment: Cell cycle assay, PI single staining, flow cytometry; type: cell-based, human; conditions: for Percentage of Cell Cycles (%) G1 / Percentage of Cell Cycles (%) S / Percentage of Cell Cycles (%) G2/M: 48 h; for Percentage of Cell Cycles (%) G2/M: control 15.69%
Protocol: To further clarify the effects of A-ring fused steroidal pyrazines on cell growth, the cell cycle distribution of PC-3 cells was investigated through treatment with compound 12n at concentration gradients for 48 h (Figure 5 and Table 5).
The cell cycle was examined by PI single staining (Beyotime, Shanghai, China), as previously described. […] The samples were analyzed using flow cytometry for DNA content (CytoFLEX, California, United States).

PC-3 cells [4] = experiment: Giemsa staining for morphological features of apoptosis; type: cell-based, human; conditions: 1.0 and 4.0 μM, 48 h
Protocol: After being treated with 12n at different concentrations (1.0 and 4.0 μM), the cells were stained with Giemsa stain. […] Other morphological changes, such as the loss of volume and deformation of a regular appearance, were also found.
Giemsa stain was used to assess the morphological changes of PC-3 cells, according to the standard Giemsa procedure established by the supplier (Solarbio, Beijng, China). Briefly, PC-3 cells were plated at 3 × 10^3 cells/well into a 96-well plates. PC-3 cells after treatment with 12n for 48 h were fixed with methanol (75%) for 10 min at room temperature. Then, the cells were stained with Giemsa (diluted with phosphate buffer), observed, and photographed under the microscope at 200 × (Olympus Corporation, Tokyo, Japan ).

[5] = tested on: THLE-2 (normal human cells); experiment: CCK-8 cytotoxicity on normal cells, THLE-2; type: cell-based
Protocol: as §1, §2, §3

PC-3 cells [6] = experiment: Cell apoptosis assay, Annexin V-FITC/PI dual staining, flow cytometry; type: cell-based, human; conditions: for Percentage of Cell Apoptosis (%) Normal Living Cell: 48 h (Q1-LL); for Percentage of Cell Apoptosis (%) Early Apoptosis: 48 h (Q1-LR); for Percentage of Cell Apoptosis (%) Necrosis: 48 h (Q1-UL); for Percentage of Cell Apoptosis (%) Late Apoptosis: 48 h (Q1-UR); for apoptosis ratio (early and late apoptotic ratios): 48 h, blank control 5.77%
Protocol: To clarify the effect of steroidal pyrazines on the induction of apoptosis in PC-3 cells, a flow cytometry assay with Annexin-V-FITC/PI double staining was implemented.
The cell apoptosis was evaluated with Annexin V-FITC/PI dual staining (Beyotime, Shanghai, China), as previously described. PC-3 cells (1 × 10^6 cells per well) seeded into 6-well plates (Costar, Shanghai, China) were incubated with Ham’s F-12K containing various concentrations (0.2, 1.0, and 5.0 μM) of compound 12n for 48 h. The biological samples were analyzed using flow cytometry (CytoFLEX, CA, USA).

P338 = tested on: P338; design: method as in PMID 14695204, PMID 26042639; conditions: cited from earlier work

**Q.** With C[C@@H]1[C@]2(O[C@H]3C=C4[C@@H]5CC[C@H]6Cc7nc8c(nc7C[C@]6(C)[C@H]5C[C@@H](O)[C@]4(C)[C@]31O)C[C@@H]1CC[C@H]3C4=CC[C@@H]5[C@H](C)[C@@]6(OC[C@]45C(=O)C[C@@H]3[C@@]1(C)C8)OC(C)(C)C[C@H]6O)O[C@](C)(CO)C[C@H]2O [Cephalostatin 1] as the compound, how does the GI50 (DU-145) read?
**A.** 0.11 nM

**Q.** And the GI50 (NCI-H460)?
**A.** 0.044 nM

**Q.** What about the GI50 (MCF-7) of the same compound?
**A.** 0.099 nM

**Q.** Which inhibition at 20 µM ([1]; Homo sapiens) does the source give for CC1(C)C2=CCC3C(CC[C@@]4(C)C3CC[C@@H]4C(=O)O)[C@@]2(C)Cc2nccnc21 (some centres unmarked) [Compound 5a] here?
**A.** 25.1 ± 2.64%

**Q.** What about the inhibition at 20 µM (MCF-7 (breast carcinoma)) of the same compound?
**A.** 3.09 ± 1.05%

**Q.** And the inhibition at 20 µM [2]?
**A.** 17.9 ± 1.16%

**Q.** And the melting point?
**A.** 270 to 292 °C

**Q.** What does the source list for CC(O)C1CCC2C3CC=C4C(C)(C)c5nccnc5CC4(C)C3CCC12C (centres unmarked) [Compound 10a]?
**A.** inhibition at 20 µM (MCF-7 (breast carcinoma)): 4.99 ± 3.09%; inhibition at 20 µM [2]: 6.2 ± 5.25%; melting point: 150 to 152 °C

**Q.** Which “Percentage of Cell Cycles (%) G1” value (PC-3 cells [3]; PC-3, 0.2 μM) does the source give for CC(O)C1CCC2C3CC=C4C(C)(C)c5nc(C(=O)NCCc6ccccc6)cnc5CC4(C)C3CCC12C (centres unmarked) [Compound 12n] here?
**A.** 46.65%

**Q.** And the “Percentage of Cell Cycles (%) S” value (PC-3 cells [3]; PC-3, 0.2 μM)?
**A.** 37.26%

**Q.** And the “Percentage of Cell Cycles (%) G2/M” value (PC-3 cells [3]; PC-3, 0.2 μM)?
**A.** 16.09%

**Q.** What about the “Percentage of Cell Cycles (%) G1” value (PC-3 cells [3]; PC-3, 1.0 μM) of the same compound?
**A.** 23.03%

**Q.** What about the “Percentage of Cell Cycles (%) S” value (PC-3 cells [3]; PC-3, 1.0 μM) of the same compound?
**A.** 30.78%

**Q.** And the “Percentage of Cell Cycles (%) G2/M” value (PC-3 cells [3]; PC-3, 1.0 μM)?
**A.** 46.19%

**Q.** And the “percentage of cells in the G2/M phase” value (PC-3 cells [3]; PC-3, 5.0 μM)?
**A.** 44.27%

**Q.** What about the “Percentage of Cell Cycles (%) G1” value (PC-3 cells [3]; PC-3, 5.0 μM) of the same compound?
**A.** 55.73%

**Q.** What about the “Percentage of Cell Cycles (%) S” value (PC-3 cells [3]; PC-3, 5.0 μM) of the same compound?
**A.** 0.00%

**Q.** And the “Percentage of Cell Cycles (%) G2/M” value (PC-3 cells [3]; PC-3, 5.0 μM)?
**A.** 44.27%

**Q.** And the inhibition at 20 µM ([1]; Homo sapiens)?
**A.** > 60%

**Q.** What about the IC50 ([1]; Homo sapiens, CCK-8, 48 h, triplicate) of the same compound?
**A.** 930 ± 20 nM

**Q.** And the “SI: Selectivity index = (IC50 of THLE-2)/(IC50 of PC-3)” value ([1]; THLE-2 vs PC-3)?
**A.** 28.71

**Q.** And the “Morphological changes of PC-3 cells (Giemsa stain)” value (PC-3 cells [4])?
**A.** could cause the morphological change of PC-3 cells in a dose-dependent manner

**Q.** What about the inhibition at 20 µM (MCF-7 (breast carcinoma)) of the same compound?
**A.** 40.8 ± 1.72%

**Q.** And the inhibition at 20 µM [2]?
**A.** 55.4 ± 1%

**Q.** And the inhibition at 20 µM ([5]; 20 μM, 48 h, CCK8, NA = no activity, read-out: Inhibitory Ratio (Mean% ± SD%) THLE-2)?
**A.** 19.3 ± 1.81%

**Q.** And the IC50 ([5]; CCK-8, 48 h)?
**A.** 26700 nM

**Q.** And the “Percentage of Cell Apoptosis (%) Normal Living Cell” value (from here on “Percentage … (%) Normal Living Cell”) (PC-3 cells [6]; PC-3, 0.2 μM)?
**A.** 89.20%

**Q.** And the “Percentage of Cell Apoptosis (%) Early Apoptosis” value (“Percentage … (%) Early Apoptosis” below) (PC-3 cells [6]; PC-3, 0.2 μM)?
**A.** 0.76%

**Q.** And the “Percentage of Cell Apoptosis (%) Necrosis” value (“Percentage … (%) Necrosis” below) (PC-3 cells [6]; PC-3, 0.2 μM)?
**A.** 2.15%

**Q.** And the “Percentage of Cell Apoptosis (%) Late Apoptosis” value (“Percentage … (%) Late Apoptosis” for short) (PC-3 cells [6]; PC-3, 0.2 μM)?
**A.** 7.90%

**Q.** And the “apoptosis ratio (early and late apoptotic ratios)” value (“apoptosis ratio” below) (PC-3 cells [6]; PC-3, 0.2 μM)?
**A.** 8.66%

**Q.** And the “Percentage … (%) Normal Living Cell” value (PC-3 cells [6]; PC-3, 1.0 μM)?
**A.** 73.17%

**Q.** What about the “Percentage … (%) Early Apoptosis” value (PC-3 cells [6]; PC-3, 1.0 μM) of the same compound?
**A.** 4.55%

**Q.** What about the “Percentage … (%) Necrosis” value (PC-3 cells [6]; PC-3, 1.0 μM) of the same compound?
**A.** 3.21%

**Q.** And the “Percentage … (%) Late Apoptosis” value (PC-3 cells [6]; PC-3, 1.0 μM)?
**A.** 19.07%

**Q.** What about the “apoptosis ratio” value (PC-3 cells [6]; PC-3, 1.0 μM) of the same compound?
**A.** 23.62%

**Q.** What about the “Percentage … (%) Normal Living Cell” value (PC-3 cells [6]; PC-3, 5.0 μM) of the same compound?
**A.** 54.13%

**Q.** What about the “Percentage … (%) Early Apoptosis” value (PC-3 cells [6]; PC-3, 5.0 μM) of the same compound?
**A.** 3.64%

**Q.** And the “Percentage … (%) Necrosis” value (PC-3 cells [6]; PC-3, 5.0 μM)?
**A.** 6.30%

**Q.** And the “Percentage … (%) Late Apoptosis” value (PC-3 cells [6]; PC-3, 5.0 μM)?
**A.** 35.93%

**Q.** And the “apoptosis ratio” value (PC-3 cells [6]; PC-3, 5.0 μM)?
**A.** 39.57%

**Q.** For Ritterazine B, which “ED50 (nM) for P338” value (P338) is on record?
**A.** 0.17 nM
